According to ChEMBL document CHEMBL1133187, “Novel antiarthritic agents with 1,2-isothiazolidine-1,1-dioxide (gamma-sultam) skeleton: cytokine suppressive dual inhibitors of cyclooxygenase-2 and 5-lipoxygenase” (J Med Chem, 2000):

How the values were obtained:
Rattus norvegicus [1] = species on record: Rattus norvegicus; assay: Inhibitory effect for increase in plasma prostaglandin E2 (PGE2) level after arachidonic acid (AA) injection into COX-1 non-lipopolysaccharide-treated rats; format: functional, organism-based
Rattus norvegicus [2] = assay: Dose required for 30% inhibition of carrageenan-induced edema; format: functional
Cyclooxygenase = biological target: T1, Cyclooxygenase (Rattus norvegicus, UniProt P35355+Q63921)
T1 sequence (P35355 whole entry): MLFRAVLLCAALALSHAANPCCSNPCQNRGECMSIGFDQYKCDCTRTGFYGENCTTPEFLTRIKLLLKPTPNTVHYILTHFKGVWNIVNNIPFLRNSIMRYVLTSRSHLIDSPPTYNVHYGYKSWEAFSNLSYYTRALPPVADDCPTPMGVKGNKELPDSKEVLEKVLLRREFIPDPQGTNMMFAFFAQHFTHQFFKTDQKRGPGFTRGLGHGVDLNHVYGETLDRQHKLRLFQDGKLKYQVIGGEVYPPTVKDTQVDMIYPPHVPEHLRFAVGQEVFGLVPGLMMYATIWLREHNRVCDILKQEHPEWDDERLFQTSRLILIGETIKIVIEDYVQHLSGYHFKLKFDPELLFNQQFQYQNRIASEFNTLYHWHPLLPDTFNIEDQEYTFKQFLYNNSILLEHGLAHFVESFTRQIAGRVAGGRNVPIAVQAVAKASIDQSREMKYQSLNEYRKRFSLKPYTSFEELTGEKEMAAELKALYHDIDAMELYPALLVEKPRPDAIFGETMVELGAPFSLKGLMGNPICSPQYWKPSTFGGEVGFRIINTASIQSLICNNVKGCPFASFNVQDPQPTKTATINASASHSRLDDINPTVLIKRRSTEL
T1 sequence (Q63921 whole entry): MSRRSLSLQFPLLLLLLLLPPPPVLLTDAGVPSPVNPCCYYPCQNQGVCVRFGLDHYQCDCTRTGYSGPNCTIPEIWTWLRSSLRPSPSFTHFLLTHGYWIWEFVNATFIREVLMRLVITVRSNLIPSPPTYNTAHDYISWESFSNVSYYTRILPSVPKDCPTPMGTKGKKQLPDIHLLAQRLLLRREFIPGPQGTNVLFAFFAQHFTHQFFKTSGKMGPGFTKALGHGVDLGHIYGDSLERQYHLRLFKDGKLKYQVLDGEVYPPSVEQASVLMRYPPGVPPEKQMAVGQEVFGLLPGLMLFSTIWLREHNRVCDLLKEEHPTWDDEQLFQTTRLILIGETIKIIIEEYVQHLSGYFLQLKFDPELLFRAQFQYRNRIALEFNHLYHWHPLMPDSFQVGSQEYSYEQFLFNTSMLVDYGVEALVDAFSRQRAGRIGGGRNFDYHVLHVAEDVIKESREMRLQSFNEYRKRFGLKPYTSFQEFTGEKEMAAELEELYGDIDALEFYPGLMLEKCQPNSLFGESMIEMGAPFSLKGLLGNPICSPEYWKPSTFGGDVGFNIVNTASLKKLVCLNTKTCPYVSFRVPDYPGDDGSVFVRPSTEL
Description: In vitro inhibitory effect on production of prostaglandin E2 (PGE2) in rat synovial cells.

Rattus norvegicus [3] = assay: Percent inhibition of carrageenan-induced foot-pad edema at 30 mg/kg po; format: functional
Rattus norvegicus [4] = species on record: Rattus norvegicus; assay: Inhibitory effect for increase in plasma prostaglandin E2 (PGE2) level after arachidonic acid (AA) injection into COX-2 lipopolysaccharide-treated rats; format: functional, organism-based
[5] = Inhibitory effect on production of cyclooxygenase-2 (COX-2) prostaglandin E2 (PGE2) in human IL1-beta stimulated synovial cells; format: functional
THP-1 [6] = assay: In vitro effect on production of lipopolysaccharide (LPS) -induced IL1-beta in human THP-1 cells; format: functional, cell-based
Rattus norvegicus [7] = assay: Percent inhibition of adjuvant-induced arthritis at 10 mg/kg po; format: functional
Rattus norvegicus [8] = species on record: Rattus norvegicus; assay: Dose required for 30% inhibition of adjuvant-induced arthritis; format: functional
Homo sapiens = species on record: Homo sapiens; assay: Inhibitory effect on production of (COX-1) thromboxane B2 (TXB2) in human platelet cells; format: functional, cell-based
Rattus norvegicus [9] = species on record: Rattus norvegicus; assay: In vitro effect on production of calcium ionophore (A23187) -induced Leukotriene B4 (LTB4) in rat peritoneal cells; format: functional, cell-based
Rattus norvegicus [10] = species on record: Rattus norvegicus; assay: Dose required for Ulcerogenic effect; format: functional
Rattus norvegicus [11] = species on record: Rattus norvegicus
Description: Lengths of bleeding ulcer of drug-administered group

Rattus norvegicus [12] = species on record: Rattus norvegicus; assay: In vitro inhibitory effect on production of, Prostaglandin E2 (PGE2) in rat synovial cells; format: functional
Rattus norvegicus [13] = species on record: Rattus norvegicus; assay: In vitro inhibitory effect on production of, calcium ionophore (A23187) -induced Leukotriene B4 (LTB4) in rat peritoneal cells; format: functional, cell-based
THP-1 [14] = assay: In vitro inhibitory effect on production of, lipopolysaccharide (LPS) -induced IL1-beta in human THP-1 cells; format: functional, cell-based
Rattus norvegicus [15] = species on record: Rattus norvegicus; assay: In vitro inhibitory effect on production of calcium ionophore (A23187)-induced Leukotriene B4 (LTB4) in rat peritoneal cells; format: functional, cell-based
THP-1 [16] = assay: In vitro inhibitory effect on production of lipopolysaccharide (LPS)-induced IL1-beta in human THP-1 cells; format: functional, cell-based
Rattus norvegicus [17] = species on record: Rattus norvegicus; assay: In vitro inhibitory effect on production of Prostaglandin E2 (PGE2) in rat synovial cells; format: functional
Rattus norvegicus [18] = assay: Percent inhibition of adjuvant-induced arthritis at 10 mg/kg poP<0.01; format: functional; details: read-out: Inhibition

IC50 (Cyclooxygenase) | IC50 (THP-1 [6]) | IC50 (Rattus norvegicus [9]) | Structure (SMILES) | inhibition in vivo at 30 mg/kg (Rattus norvegicus [3]) | further results
9.5 nM | 10000 nM | 2500 nM | CCN1CC/C(=C\c2cc(C(C)(C)C)c(O)c(C(C)(C)C)c2)S1(=O)=O | 49.4% | ED50 (Rattus norvegicus [1]): > 30 mg/kg; ED30 (Rattus norvegicus [2]): 3.5 mg/kg; ED50 (Rattus norvegicus [4]): 3.19 mg/kg; IC50 [5]: 11 nM; inhibition in vivo at 10 mg/kg (Rattus norvegicus [7]): 37.8%; ED30 (Rattus norvegicus [8]): 0.76 mg/kg; IC50 (Homo sapiens): 27000 nM; Dose (Rattus norvegicus [10]): 400 mg/kg; Ulcer index (Rattus norvegicus [11]): 1.6 mm
320 nM |  |  | CC(C)N1CC/C(=C\c2cc(C(C)(C)C)c(O)c(C(C)(C)C)c2)S1(=O)=O |  | 
1000 nM |  |  | CC(C)(C)c1cc(/C=C2\CCN(c3ccccn3)S2(=O)=O)cc(C(C)(C)C)c1O |  | 
< 1 nM | > 100000 nM | 3000 nM | CON1CC/C(=C\c2cc(C(C)(C)C)c(O)c(C(C)(C)C)c2)S1(=O)=O | 26.5% | ED30 (Rattus norvegicus [2]): 34.7 mg/kg; inhibition in vivo at 10 mg/kg (Rattus norvegicus [7]): 35.2%; ED30 (Rattus norvegicus [8]): 2.4 mg/kg
3400 nM |  |  | CC(C)(C)c1cc(/C=C2\CCN(CC(=O)O)S2(=O)=O)cc(C(C)(C)C)c1O |  | 
2.1 nM | 10000 nM | 2500 nM | CCN1CC/C(=C/c2cc(C(C)(C)C)c(O)c(C(C)(C)C)c2)S1(=O)=O | 7.3% | inhibition in vivo at 10 mg/kg (Rattus norvegicus [7]): 11.4%
9.1 nM | 28000 nM | 2800 nM | CN1CC/C(=C\c2cc(C(C)(C)C)c(O)c(C(C)(C)C)c2)S1(=O)=O | 61.4% | ED30 (Rattus norvegicus [2]): 5.4 mg/kg; inhibition in vivo at 10 mg/kg (Rattus norvegicus [18]): 39.4%; ED30 (Rattus norvegicus [8]): 0.64 mg/kg; Dose (Rattus norvegicus [10]): 400 mg/kg; Ulcer index (Rattus norvegicus [11]): 26.8 mm
10 nM | 90000 nM | 9500 nM | CC(C)(C)c1cc(/C=C2\CCN(O)S2(=O)=O)cc(C(C)(C)C)c1O | 15.8% | inhibition in vivo at 10 mg/kg (Rattus norvegicus [7]): 3.6%
100 nM | > 100000 nM | 28000 nM | CON(C)C(=O)N1CC/C(=C\c2cc(C(C)(C)C)c(O)c(C(C)(C)C)c2)S1(=O)=O | 11.2% | 
410 nM |  |  | CC(C)CN1CC/C(=C\c2cc(C(C)(C)C)c(O)c(C(C)(C)C)c2)S1(=O)=O |  | 

Continued, molecule first:

Structure (SMILES) | IC50 (Cyclooxygenase) | IC50 (THP-1 [6]) | IC50 (Rattus norvegicus [9]) | inhibition in vivo at 30 mg/kg (Rattus norvegicus [3]) | further results
CCN1CC/C(=C\c2ccc(O)c(OC)c2)S1(=O)=O |  |  |  |  | IC50 (Rattus norvegicus [12]): > 1000 nM; IC50 (Rattus norvegicus [13]): > 100000 nM; IC50 (THP-1 [14]): > 100000 nM
CCN1CC/C(=C\c2ccc(O)cc2)S1(=O)=O |  |  |  |  | IC50 (Rattus norvegicus [12]): > 1000 nM; IC50 (Rattus norvegicus [13]): > 100000 nM; IC50 (THP-1 [14]): > 100000 nM
CC(C)(C)c1cc(/C=C2/CCNS2(=O)=O)cc(C(C)(C)C)c1O | < 1 nM | 27000 nM | 1800 nM | 10.8% | 
CN1OCC/C(=C\c2cc(C(C)(C)C)c(O)c(C(C)(C)C)c2)S1(=O)=O | 200 nM |  |  |  | 
CCN1CC/C(=C\c2cc(OC)c(O)c(OC)c2)S1(=O)=O |  |  |  |  | IC50 (Rattus norvegicus [12]): > 1000 nM; IC50 (Rattus norvegicus [13]): 2600 nM; IC50 (THP-1 [14]): > 100000 nM
CC(C)(C)c1cc(/C=C2/CCN(c3ccc(Cl)cc3)S2(=O)=O)cc(C(C)(C)C)c1O | < 1 nM |  |  |  | 
CCN1CC/C(=C\c2cc(C(C)C)c(O)c(C(C)C)c2)S1(=O)=O |  |  |  |  | IC50 (Rattus norvegicus [15]): > 100000 nM; IC50 (THP-1 [16]): > 100000 nM; IC50 (Rattus norvegicus [17]): > 1000 nM
CC(C)(C)c1cc(/C=C2\CCN(C3CC3)S2(=O)=O)cc(C(C)(C)C)c1O | 2.5 nM | 9000 nM | 3200 nM | 21.4% | ED30 (Rattus norvegicus [2]): 11.9 mg/kg; inhibition in vivo at 10 mg/kg (Rattus norvegicus [7]): 32.9%; ED30 (Rattus norvegicus [8]): 1.7 mg/kg; Dose (Rattus norvegicus [10]): 400 mg/kg; Ulcer index (Rattus norvegicus [11]): 0.7 mm
